PMC12198407, “Preclinical and first-in-human of purinostat mesylate, a novel selective HDAC I/IIb inhibitor, in relapsed/refractory multiple myeloma and lymphoma” (Signal Transduction and Targeted Therapy, 2025)
Read-outs that look alike come from different tables or passages of the source.

Columns and labels:
[1] = system: double-expressing lymphoma (DEL) PDX; experiment: DEL PDX mouse model; assay type: in vivo, mice; conditions: 18 days; PM 5 mg/kg or 10 mg/kg
Procedure: (§1) All animal studies were performed in accordance with the guidelines approved by the Institutional Animal Care and Use Committee of Sichuan University, Chengdu, China. Six- to seven-week-old female NOD-SCID mice were purchased from Beijing Vital River Laboratory Animal Technology Co., Ltd. (China). Mice received subcutaneous inoculation with 0.5 × 10^7 MM1S or RPMI-8226 cells, to establish xenograft models. Heterotopic PDX models were generated as previously described.[54] When tumors reached 150–250 mm^3, mice were treated with various compounds. PM and panobinostat were administered intravenously three times a week at 5 mg/kg in combination therapy. […] Tumor volume (tumor volume (mm^3) = π/6 × length × width^2) and body weights were measured every two days. At the end, tumor tissues were weighed, and antitumor activity was evaluated by the tumor inhibition rate = (1 − tumor weight of treatment group/tumor weight of vehicle group) × 100%.

rabbit red blood cells = experiment: In vitro hemolytic test; conditions: 0.204 mg/mL
Procedure: This experiment included a negative control group (0.9% sodium chloride injection), a positive control group (sterile water for injection), a blank formulation group of injectable Purinostat Mesylate with five dosage levels (0.1, 0.2, 0.3, 0.4, and 0.5 mL/test tube at a concentration of 3.06 mg/mL, which is the same as the concentration of the excipient in the injectable Purinostat Mesylate group), and five dosage levels of injectable Purinostat Mesylate (0.1, 0.2, 0.3, 0.4, and 0.5 mL/test tube at a concentration of 0.204 mg/mL, the maximum intended clinical concentration). A 2% red blood cell suspension was mixed with 0.9% sodium chloride injection, sterile water for injection, the blank formulation of injectable Purinostat Mesylate, and injectable Purinostat Mesylate in the specified proportions, and then placed in a constant temperature incubator at 37±0.5°C. […] Each group was measured in parallel three times.

[2] = system: Salmonella typhimurium TA97, TA98, TA100, TA102, TA1535; experiment: Microbial reverse mutation test (Ames); conditions: 50–5000 μg/plate, with and without S9
Procedure: In this experiment, two methods were selected: one with the S9 metabolic activation system and one without. The test strains used were histidine-dependent mutant strains of Salmonella typhimurium, specifically TA97, TA98, TA100, TA102, and TA1535. Under both conditions, with and without the S9 metabolic activation system, Purinostat Mesylate was tested at a maximum dose of 5000 μg/plate, along with four additional dose groups of 1500, 500, 150, and 50 μg/plate. A solvent control group (DMSO) and a positive control group (administering the appropriate positive agent) were also included, with each concentration tested in triplicate. The experiment was repeated once.

[3] = Metabolites in dog plasma; assay type: in vivo, Beagle dogs; conditions: male and female dogs
Source text: Four metabolites of Purinostat Mesylate were detected in plasma samples from both male and female dogs, namely M4 (MW = 636.66, unknown product), M8 (MW = 474.52, reduction product), M13 (MW = 505.54, methylation product), and M16 (MW = 475.50, hydrolysis product). The primary metabolic pathways involved hydrolysis, methylation, and reduction, with no significant gender differences observed. The parent compound, Purinostat Mesylate, accounted for more than 35% of the UV absorption peak area in the plasma samples from both male and female dogs, indicating it is one of the major components. Purinostat Mesylate is primarily metabolized in the plasma of male and female dogs through hydrolysis, methylation, and reduction pathways. A possible metabolic pathway structure diagram is shown below: […]

[4] = system: cMYC-KRAS12V plasmacytoma; experiment: cMYC-KRAS12V primary plasmacytoma (PCT) mouse model; assay type: in vivo, BALB/c mice
Procedure: (§2) The cMYC-KRAS12V-induced plasmacytoma mouse model in BALB/c (GemPharmatech Co., Ltd., Nanjing, China) was established as previously described.[33] On day 28 or 35 post bone marrow transplantation, recipients received various treatments. The 5TMM mouse model was established as previously described.[55] The 5TGM1-luc cells were intravenously injected into 6-week-old C57BL/KawRij mice (Harlan Co. Netherlands) with 2 × 10^6 cells per mouse. After three weeks, mice were treated with vehicle or PM 10 mg/kg. Serum Ca^2+ levels were monitored weekly for three weeks after the start of administration. Kaplan-Meier survival curves were generated for each treatment group. Additionally, the 5TMM mouse model studying PM’s effects on immune response and bone destruction involved randomizing mice into vehicle and PM (10 mg/kg) groups one week after inoculation. T cell subsets were analyzed by flow cytometry 24 h after a single dose and 1 month after vehicle or PM treatment. The mice were sacrificed after 1 month of treatment, and the bone destruction was detected by Micro-CT.

r/r DLBCL PDX = r/r DLBCL PDX mouse model; assay type: in vivo, mice; conditions: PM 10 mg/kg; Pola-BR per Table S9
Procedure: as §1

HDAC10 = HDAC10 (Homo sapiens, UniProt Q969S8); experiment: HDAC enzyme activity in vitro; assay type: biochemical
Chain of HDAC10 (Q969S8 whole entry): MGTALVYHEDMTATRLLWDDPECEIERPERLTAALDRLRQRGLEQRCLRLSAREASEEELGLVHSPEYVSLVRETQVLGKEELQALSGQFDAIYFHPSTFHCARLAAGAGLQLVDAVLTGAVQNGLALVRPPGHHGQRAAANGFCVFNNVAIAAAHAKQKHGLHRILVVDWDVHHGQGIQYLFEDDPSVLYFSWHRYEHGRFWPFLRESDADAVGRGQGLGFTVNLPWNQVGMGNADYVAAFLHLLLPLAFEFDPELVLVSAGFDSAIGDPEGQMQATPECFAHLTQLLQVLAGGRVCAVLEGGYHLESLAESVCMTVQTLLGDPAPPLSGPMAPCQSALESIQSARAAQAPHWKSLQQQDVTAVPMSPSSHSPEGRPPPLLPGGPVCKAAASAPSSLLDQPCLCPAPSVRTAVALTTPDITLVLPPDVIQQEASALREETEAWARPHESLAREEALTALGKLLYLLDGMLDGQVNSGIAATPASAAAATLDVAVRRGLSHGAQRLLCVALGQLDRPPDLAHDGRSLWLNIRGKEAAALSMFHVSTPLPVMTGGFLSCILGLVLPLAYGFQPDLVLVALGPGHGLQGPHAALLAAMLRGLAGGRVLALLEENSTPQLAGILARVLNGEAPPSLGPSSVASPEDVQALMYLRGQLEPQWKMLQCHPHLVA

HUVEC = experiment: Proliferation, MTT or Alamar Blue; assay type: cell-based; conditions: Homo sapiens, read-out: IC50, normal HUVEC cells
HDAC6 = HDAC6 (Homo sapiens, UniProt Q9UBN7); experiment: HDAC enzyme activity in vitro; assay type: biochemical
Chain of HDAC6 (Q9UBN7 whole entry): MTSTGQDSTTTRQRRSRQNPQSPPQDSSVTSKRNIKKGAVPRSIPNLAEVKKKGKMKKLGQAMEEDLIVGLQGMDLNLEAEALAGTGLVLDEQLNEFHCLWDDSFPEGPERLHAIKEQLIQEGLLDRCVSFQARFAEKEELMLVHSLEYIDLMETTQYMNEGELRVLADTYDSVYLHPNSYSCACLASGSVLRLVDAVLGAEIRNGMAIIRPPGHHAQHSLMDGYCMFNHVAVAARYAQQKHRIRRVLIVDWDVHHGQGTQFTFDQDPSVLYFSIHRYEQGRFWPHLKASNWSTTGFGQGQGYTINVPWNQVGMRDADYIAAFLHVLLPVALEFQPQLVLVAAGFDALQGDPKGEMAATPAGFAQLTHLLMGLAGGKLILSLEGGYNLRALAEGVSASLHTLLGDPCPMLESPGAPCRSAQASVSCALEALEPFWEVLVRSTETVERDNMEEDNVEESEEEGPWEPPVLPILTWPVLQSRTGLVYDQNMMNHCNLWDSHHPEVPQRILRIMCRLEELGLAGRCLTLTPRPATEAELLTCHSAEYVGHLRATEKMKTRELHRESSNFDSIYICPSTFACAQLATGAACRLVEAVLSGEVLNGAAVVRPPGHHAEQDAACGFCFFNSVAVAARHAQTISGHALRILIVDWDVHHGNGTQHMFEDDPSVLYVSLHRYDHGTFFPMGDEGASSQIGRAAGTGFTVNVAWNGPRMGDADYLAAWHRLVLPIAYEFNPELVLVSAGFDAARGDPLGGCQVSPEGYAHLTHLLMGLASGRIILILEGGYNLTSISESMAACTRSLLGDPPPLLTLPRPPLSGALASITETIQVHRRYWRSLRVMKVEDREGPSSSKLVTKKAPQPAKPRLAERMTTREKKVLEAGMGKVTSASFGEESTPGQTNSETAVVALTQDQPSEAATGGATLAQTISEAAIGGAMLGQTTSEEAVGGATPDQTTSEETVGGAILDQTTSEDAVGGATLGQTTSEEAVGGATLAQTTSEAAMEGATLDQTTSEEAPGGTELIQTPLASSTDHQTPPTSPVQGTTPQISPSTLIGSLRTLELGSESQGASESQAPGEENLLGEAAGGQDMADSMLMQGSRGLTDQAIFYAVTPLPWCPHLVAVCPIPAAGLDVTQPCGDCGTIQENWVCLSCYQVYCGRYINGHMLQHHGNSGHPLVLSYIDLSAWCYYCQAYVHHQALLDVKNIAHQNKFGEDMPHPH

human liver cells = experiment: Cytotoxicity on donor liver cells; assay type: cell-based
5TGM1-luc myeloma = experiment: 5TMM mouse model, survival and serum calcium; assay type: in vivo, C57BL/KawRij mice; set-up: serum calcium level: unit not given here; conditions: 10 mg/kg
Procedure: as §2

CYP1A2 = target: T1, CYP1A2 (Homo sapiens, UniProt P05177); experiment: CYP inhibition, human liver microsomes; assay type: in vitro ADME
T1 construct: human liver microsomal cytochrome P450 isoenzymes; from tissue; host or cells: human liver microsomes
T1 sequence (P05177 whole entry): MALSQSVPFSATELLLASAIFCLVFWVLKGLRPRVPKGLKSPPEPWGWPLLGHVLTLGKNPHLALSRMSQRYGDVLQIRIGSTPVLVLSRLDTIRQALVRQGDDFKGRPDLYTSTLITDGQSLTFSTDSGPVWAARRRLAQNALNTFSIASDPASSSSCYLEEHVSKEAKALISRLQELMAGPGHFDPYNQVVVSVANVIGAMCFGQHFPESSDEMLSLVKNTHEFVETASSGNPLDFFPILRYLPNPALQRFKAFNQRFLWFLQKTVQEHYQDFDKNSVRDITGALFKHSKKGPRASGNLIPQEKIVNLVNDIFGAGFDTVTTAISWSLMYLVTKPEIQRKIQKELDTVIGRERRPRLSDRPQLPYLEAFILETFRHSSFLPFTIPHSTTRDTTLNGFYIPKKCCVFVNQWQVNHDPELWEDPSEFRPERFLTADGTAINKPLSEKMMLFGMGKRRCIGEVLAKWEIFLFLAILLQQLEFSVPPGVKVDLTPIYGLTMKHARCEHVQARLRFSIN

[5] = Metabolic stability in liver microsomes; assay type: in vitro ADME; conditions: for half-life at 1 µM: NADPH, 37°C; for CLint scaled at 1 µM: read-out: liver intrinsic clearance (CLint)
Procedure: The metabolic stability of Purinostat Mesylate was evaluated in CD-1 mice, SD rats, Beagle dogs, crab-eating monkeys, and human liver microsomes. Under conditions of 37°C, 1 µM of Purinostat Mesylate was incubated with liver microsomes from the five species mentioned above, supplemented with a NADPH regeneration system, for varying durations up to 60 minutes. The concentration of Purinostat Mesylate in the resulting samples was analyzed using LC/MS/MS.

With CN(Cc1nc2c(N3CCOCC3)nc(-c3ccc(N)cc3)nc2n1C)c1ncc(C(=O)NO)cn1.CS(=O)(=O)O [PM, 2-(((2-(4-Aminophenyl)-9-methyl-6-(4-morpholinyl)-9H-purine-8-yl)methyl)methylamino)-N-hydroxy-5-pyrimidine-carboxamide Mesylate] the complete remission [1] was “all mice achieved complete remission”, the “in vitro hemolytic test outcome” value (rabbit red blood cells) was “negative” and the Ames test result [2] was “negative”. For the same compound, the “share of UV absorption peak area in plasma samples” value [3] was “more than 35%”, the “median survival time (MST)” value ([4]; 5 mg/kg, vehicle 47 days) was 68 days and the “median survival time (MST)” value ([4]; more severe PCT model, from day 35, PM 10 mg/kg, regimens per Table S9) was 59 days. The tumor inhibition rate (r/r DLBCL PDX) was 77.14%, the IC50 (HDAC10) was 0.0011 µM and the IC50 (HUVEC) was 0.0689 µM. The IC50 (HDAC6) was 0.0115 µM, the “cytotoxicity on donor liver cells” value (human liver cells) was “exhibited cytotoxic effects on donor liver cells at concentrations up to 5.00 μM” and the serum calcium level (5TGM1-luc myeloma; two weeks, vehicle 20.93) was 8.972. The survival (5TGM1-luc myeloma; vehicle 50 days) was 86 days, the IC50 (CYP1A2) was over 10 µM and the half-life at 1 µM ([5]; Beagle, dog) was 1.63 h. It also gave a CLint scaled at 1 µM ([5]; Beagle, dog) of 20.4 mL/min/kg, a half-life at 1 µM ([5]; CD-1, mouse) of over 3.1 h and a CLint scaled at 1 µM ([5]; CD-1, mouse) of under 29.7 mL/min/kg. For the same compound, the half-life at 1 µM ([5]; SD, rat) was over 3.1 h, the CLint scaled at 1 µM ([5]; SD, rat) was under 13.5 mL/min/kg and the half-life at 1 µM ([5]; human) was over 3.1 h. It also gave a CLint scaled at 1 µM ([5]; human) of under 6.8 mL/min/kg, a half-life at 1 µM ([5]; monkey) of 0.0517 h and a CLint scaled at 1 µM ([5]; monkey) of 598 mL/min/kg.
